How the values were obtained:
[1] = solubility of lactam in candidate solubilisers (magnetic stirring or ultrasonic mixing); format: physicochemical
Protocol: An Ultrasonic mixer was used to obtain determine solubility.
We used a Hielscher UP200S (200W) Sonic Tip on batches of 5-20 ml. We sonicated for up to 60 minutes.
We then tested the candidate solubilisers with 1% lactam, both with 72 hours high speed magnetic stirring (with held temperature of ˜500 in the cases of solubilisers that solidify alone at room temperature) and also 20 minutes Sonication.
In each case we incorporated the lactam powder into the solubilisers (at the levels indicated in the below table) using high speed stirring to avoid lumps from forming. Once the powder was added, the described mixing method (either continued high speed stirring or Ultrasonic mixing) commenced. In the cases of Sorbitan Oleate and Polysorbate-60, we applied initial heating to approx. 500 to ensure the solubilisers were fully liquid prior to commencing addition of the lactam. Both of these materials are non-flowing at room temperature. PEG-40 Hydrogenated Castor required initial heating to ˜350 to ensure complete fluidity prior to commencing.

[2] = as above; format: physicochemical; conditions: 1% lactam in PEG-40 Hydrogenated Castor Oil; Magnetic stirring 24 hours
[3] = tested on: S. epidermidis; experiment: bacterial respiration of S. epidermidis suspension in microplate; format: cell-based; conditions: lactam pre-blended with hydrotrope, added to remainder of composition, diluted to 11.5 ppm and 0.575 ppm; 20 hours
Protocol: Test samples were diluted in sterile water to achieve a 11.5 ppm level of lactam. Dilute solution (80 μl) was added to a S. epidermidis suspension (20 μl) of bacteria at a concentration of 8 logs in a microplate. Growth media (100 μl tryptone soya broth) was added to each well of the microplate and incubated for 20 hours. Bacterial respiration was measured every 30 minutes and the results were: • A—lactam+hydrotrope only (respiration of surviving bacteria detected ˜4-5 h) • B—lactam added directly to base formulation (which contains MPG)—no pre-mixing prior to addition (respiration of surviving bacteria detected 4-5 hrs) • C—lactam pre-mixed with hydrotrope and then added to base formulation (respiration of surviving bacteria not detected—20 hrs is max detection time) • D—hydrotrope added to base formulation (respiration of surviving bacteria detected 3-4 hrs). The example below is from data obtained when pre-blending lactams with hydrotrope before adding to the remainder of the composition, and diluting to 11.5 ppm and 0.575 ppm in sterile water in order to assess efficacy against S. epidermidis suspension Dilute solution (80 μl) was added to a S. epidermidis suspension (20 μl) of bacteria at a concentration of 8 logs in a microplate. Growth media (100 μl tryptone soya broth) was added to each well of the microplate and incubated for 20 hours. Bacterial respiration was measured every 30 minutes. Data of the test samples were then compared to un-treated cell suspensions (sterile water added instead of test samples) and percent inhibition calculated.

[4] = appearance of lactam solution when added to base formulation at 5%; format: physicochemical; conditions: 3% lactam in PEG-60 Hydrogenated Castor Oil; Magnetic stirring 1 hour
Excerpt: We ensured the lactam solutions were fully uniform through constant mechanical agitation (to avoid the settling of any unsolubilised lactam material) and added them to base using slow speed stirring to incorporate them without generating aeration.

Observations of solvent solution: % of lactam solubilised ([1]; 1% lactam in 3-Methoxy-3-methyl-1-butanol, 20 minutes sonication, temp reached 60-70 C., forced): ~5% of lactam
Observations of solvent solution ([1]; 1% lactam in 3-Methoxy-3-methyl-1-butanol, Magnetic stirring 72 hours): No solubility
Observations of solvent solution ([1]; 1% lactam in Diglycerin, 20 minutes sonication, temp reached 60-70 C.): No solubility
Observations of solvent solution ([1]; 1% lactam in Diglycerin, Magnetic stirring 72 hours): No solubility
Observations of solvent solution: % of lactam solubilised ([1]; 1% lactam in Isopentyldiol, 20 minutes sonication, temp reached 60-70 C., forced): ~5% of lactam
Observations of solvent solution ([1]; 1% lactam in Isopentyldiol, Magnetic stirring 72 hours): No solubility
Observations of solvent solution: % of lactam solubilised ([1]; 1% lactam in PEG-40 Hydrogenated Castor Oil, Magnetic stirring 72 hours): ~90% of lactam
Observations of solvent solution: % of lactam solubilised ([1]; 1% lactam in PEG-40 Hydrogenated Castor Oil, Magnetic stirring 72 hours with temp. at 50 C.): ~99% of lactam
Observations of solvent solution: % of lactam solubilised ([1]; 1% lactam in PEG-60 Hydrogenated Castor Oil, 20 minutes sonication, temp reached 60-70 C.): ~25% of lactam
Observations of solvent solution: % of lactam solubilised ([1]; 1% lactam in PEG-60 Hydrogenated Castor Oil, Magnetic stirring 72 hours at 50 C.): ~25% of lactam
Observations of solvent solution: % of lactam solubilised ([1]; 1% lactam in Pentylene Glycol, 20 minutes sonication, temp reached 60-70 C.): ~5% of lactam
Observations of solvent solution: % of lactam solubilised ([1]; 1% lactam in Pentylene Glycol, Magnetic stirring 72 hours): ~5% of lactam
Observations of solvent solution: % of lactam solubilised ([1]; 1% lactam in Polysorbate 20, Magnetic stirring 24 hours): ~75% of lactam
Observations of solvent solution: % of lactam solubilised ([1]; 1% lactam in Polysorbate 20, Magnetic stirring 72 hours): ~95% of lactam
Observations of solvent solution: % of lactam solubilised ([1]; 1% lactam in Polysorbate 60, 20 minutes sonication, temp reached 60-70 C.): ~25% of lactam
Observations of solvent solution: % of lactam solubilised ([1]; 1% lactam in Polysorbate 60, Magnetic stirring 72 hours at 50 C.): ~25% of lactam
Observations of solvent solution: % of lactam solubilised ([1]; 1% lactam in Polysorbate 80, 20 minutes sonication, temp reached 60-70 C.): ~25% of lactam
Observations of solvent solution: % of lactam solubilised ([1]; 1% lactam in Polysorbate 80, Magnetic stirring 72 hours at 50 C.): ~25% of lactam
Observations of solvent solution: % of lactam solubilised ([1]; 1% lactam in Sisterna SP30-C, 20 minutes sonication, temp reached 60-70 C.): ~25% of lactam
Observations of solvent solution: % of lactam solubilised ([1]; 1% lactam in Sisterna SP30-C, Magnetic stirring 72 hours at 50 C.): ~25% of lactam
Observations of solvent solution: % of lactam solubilised ([1]; 1% lactam in Sisterna SP50-C, 20 minutes sonication, temp reached 60-70 C.): ~25% of lactam
Observations of solvent solution: % of lactam solubilised ([1]; 1% lactam in Sisterna SP50-C, Magnetic stirring 72 hours at 50 C.): ~25% of lactam
Observations of solvent solution: % of lactam solubilised ([1]; 1% lactam in Sisterna SP70-C, 20 minutes sonication, temp reached 60-70 C.): ~25% of lactam
Observations of solvent solution: % of lactam solubilised ([1]; 1% lactam in Sisterna SP70-C, Magnetic stirring 72 hours at 50 C.): ~25% of lactam
Observations of solvent solution: % of lactam solubilised ([1]; 1.5% lactam in Polysorbate 20, 20 minutes sonication, temp reached 60-70 C.): ~75% of lactam
Observations of solvent solution: % of lactam solubilised ([1]; 1.5% lactam in Polysorbate 20, 60 minutes sonication, temp reached 80-90 C., dark brown colour): ~95% of lactam
Observations of solvent solution: % of lactam solubilised ([1]; 1.5% lactam in Polysorbate 20, Magnetic stirring 48 hours): ~50% of lactam
Observations of solvent solution: % of lactam solubilised ([1]; 1.5 lactam in Polysorbate 20, Magnetic stirring, heated to 50 C. 72 hours): ~75% of lactam
Observations of solvent solution: % of lactam appeared to solubilise ([1]; 2.1% lactam in PEG-40 Hydrogenated Castor Oil, 20 minutes sonication, temp reached 80 C., small amount of 'burnt' spots visible): 90% of lactam
Observations of solvent solution ([1]; 2.1% lactam in PEG-40 Hydrogenated Castor Oil, 60 minutes sonication, temp reached 110 C., very dark colour): lactam solubilised.
Observations of solvent solution: % of lactam solubilised ([1]; 2.1% lactam in PEG-40 Hydrogenated Castor Oil, Magnetic stirring 24 hours): ~50% of lactam
Observations of solvent solution: % of lactam solubilised ([1]; 2.1% lactam in PEG-40 Hydrogenated Castor Oil, Magnetic stirring 48 hours): ~75% of lactam
Observations of solvent solution: % of lactam solubilised ([1]; 2.1% lactam in PEG-40 Hydrogenated Castor Oil, Magnetic stirring, heated to 50 C. 8 hours): ~50% of lactam
Observations of solvent solution: % of lactam solubilised ([1]; 2.1% lactam in Polysorbate 20, 20 minutes sonication, temp reached 60-70 C., dark colour formed): ~90% of lactam
Observations of solvent solution: % of lactam solubilised ([1]; 2.1% lactam in Polysorbate 20, 60 minutes sonication, temp reached 80 C.): 90% of lactam
Observations of solvent solution: % of lactam solubilised ([1]; 2.1% lactam in Polysorbate 20, 60 minutes sonication, temp reached 90-100 C.): 90% of lactam
Observations of solvent solution: % of lactam solubilised ([1]; 2.1% lactam in Polysorbate 20, Magnetic stirring 24 hours): ~50% of lactam
Observations of solvent solution: % of lactam solubilised ([1]; 2.1% lactam in Polysorbate 20, Magnetic stirring 48 hours): ~75% of lactam
Observations of solvent solution: % of lactam solubilised ([1]; 2.1% lactam in Polysorbate 20, Magnetic stirring, heated to 50 C. 8 hours): ~50% of lactam
Observations of solvent solution: % of lactam solubilised ([1]; 2.1% lactam in Polysorbate 20, Magnetic stirring, heated to 50 C. 72 hours): ~75% of lactam
Observations of solvent solution ([1]; 3% lactam in Diglycerin, Magnetic stirring 1 hour): No solubility
Observations of solvent solution: % of lactam solubilised ([1]; 3% lactam in Dipropylene Glycol, Magnetic stirring 1 hour): ~5% of lactam
Observations of solvent solution ([1]; 3% lactam in Hexylene Glycol, Magnetic stirring 1 hour): No solubility
Observations of solvent solution ([1]; 3% lactam in Isopentyldiol, Magnetic stirring 1 hour): No solubility
Observations of solvent solution ([1]; 3% lactam in MMB, Magnetic stirring 1 hour): No solubility
Observations of solvent solution: % of lactam solubilised ([1]; 3% lactam in PEG-40 Hydrogenated Castor Oil, 20 minutes sonication, temp reached 60-70 C.): ~75% of lactam
Observations of solvent solution: % of lactam solubilised ([1]; 3% lactam in PEG-40 Hydrogenated Castor Oil, 60 minutes sonication, temp reached 80 C.): ~75% of lactam
Observations of solvent solution: % of lactam solubilised ([1]; 3% lactam in PEG-40 Hydrogenated Castor Oil, Magnetic stirring 1 hour): ~25% of lactam
Observations of solvent solution: % of lactam solubilised ([1]; 3% lactam in PEG-60 Hydrogenated Castor Oil, Magnetic stirring 1 hour): ~10% of lactam
Observations of solvent solution ([1]; 3% lactam in Pentylene Glycol, Magnetic stirring 1 hour): No solubility
Observations of solvent solution: % of lactam solubilised ([1]; 3% lactam in Polysorbate 20, 20 minutes sonication, temp reached 60-70 C.): ~50% of lactam
Observations of solvent solution: % of lactam solubilised ([1]; 3% lactam in Polysorbate 20, 60 minutes sonication, temp reached 90 C.): ~60-70% of lactam
Observations of solvent solution: % of lactam solubilised ([1]; 3% lactam in Polysorbate 20, Magnetic stirring 1 hour): ~25% of lactam
Observations of solvent solution: % of lactam solubilised ([1]; 3% lactam in Polysorbate 60, Magnetic stirring 1 hour, 50 C.): ~10% of lactam
Observations of solvent solution: % of lactam solubilised ([1]; 3% lactam in Polysorbate 80, Magnetic stirring 1 hour): ~10% of lactam
Observations of solvent solution: % of lactam solubilised ([1]; 3% lactam in Sisterna SP30-C, Magnetic stirring 1 hour): ~5% of lactam
Observations of solvent solution: % of lactam solubilised ([1]; 3% lactam in Sisterna SP50-C, Magnetic stirring 1 hour): ~5% of lactam
Observations of solvent solution: % of lactam solubilised ([1]; 3% lactam in Sisterna SP70-C, Magnetic stirring 1 hour): ~5% of lactam
Observations of solvent solution: % of lactam solubilised ([1]; 3% lactam in Sorbitan Oleate, Magnetic stirring 1 hour, 50 C.): ~5% of lactam
Observations of solvent solution: % of lactam solubilised ([1]; 4.2% lactam in PEG-40 Hydrogenated Castor Oil, 20 minutes sonication, temp reached 60-70 C., very dark colour): 50% of lactam
Observations of solvent solution: % of lactam solubilised ([1]; 4.2% lactam in PEG-40 Hydrogenated Castor Oil, 60 minutes sonication, temp reached 80 C., very dark colour): 75% of lactam
Observations of solvent solution: % of lactam solubilised ([1]; 4.2% lactam in PEG-40 Hydrogenated Castor Oil, 60 minutes sonication, temp reached 110 C., very dark colour): 75% of lactam
Observations of solvent solution: % of lactam solubilised ([1]; 4.2% lactam in PEG-40 Hydrogenated Castor Oil, Magnetic stirring 24 hours): ~25% of lactam
Observations of solvent solution: % of lactam solubilised ([1]; 4.2% lactam in PEG-40 Hydrogenated Castor Oil, Magnetic stirring 48 hours): ~25% of lactam
Observations of solvent solution: % of lactam solubilised ([1]; 4.2% lactam in PEG-40 Hydrogenated Castor Oil, initially stirred for 2, 4 and 6 hours): ≤ 25% solubilised).
Observations of solvent solution: % of lactam solubilised ([1]; 4.2% lactam in Polysorbate 20, 20 minutes sonication, temp reached 60-70 C.): ~50% of lactam
Observations of solvent solution: % of lactam solubilised ([1]; 4.2% lactam in Polysorbate 20, 60 minutes sonication, temp reached 90 C.): ~60-70% of lactam
Observations of solvent solution: % of lactam solubilised ([1]; 4.2% lactam in Polysorbate 20, Magnetic stirring 24 hours): ~25% of lactam
Observations of solvent solution: % of lactam solubilised ([1]; 4.2% lactam in Polysorbate 20, Magnetic stirring 48 hours): ~25% of lactam
Observations of solvent solution: % of lactam solubilised ([1]; 4.2% lactam in Polysorbate 20, initially stirred for 2, 4 and 6 hours): ≤ 25% solubilised).
Observations of solvent solution: % of lactam solubilised ([1]; PEG-40 Hydrogenated Castor Oil table: 3% lactam, Magnetic stirring 1 hour): ~25% of lactam
Observations of solvent solution: % of lactam solubilised ([1]; Polysorbate 20 table: 3% lactam, Magnetic stirring 1 hour): ~25% of lactam
colour change of lactam solution ([1]; when samples exceeded 50 C): dark brown colour
colour change of lactam solution ([1]; when the temperature reached 65 C, Polysorbate-20 and PEG-40 Hydrogenated Castor Oil variants only): virtually opaque
Observations of solvent solution: % of lactam solubilised [2]: ~75% of lactam
Observations when added to base @ 5% [4]: Cloudy in solution
SMILES: C=C1NC(=O)C=C1c1ccccc1 [5-methylene-4-phenyl-1H-pyrrol-2(5H)-one]
Result (inhibition of bacterial respiration versus water control) [3]: 82.5%

Reference: US9930888B2, “Composition” (Conopco, Inc., priority 2013, dated 2018)
